These results are taken from BindingDB's records for doi:10.1016/j.chembiol.2003.08.010 (Brigham and Women's Hospital, 2003).

Experiment [1] deals with T1, Ubiquitin carboxyl-terminal hydrolase isozyme L1 (Mus musculus, UniProt Q9R0P9).
T1 sequence (Q9R0P9 whole entry): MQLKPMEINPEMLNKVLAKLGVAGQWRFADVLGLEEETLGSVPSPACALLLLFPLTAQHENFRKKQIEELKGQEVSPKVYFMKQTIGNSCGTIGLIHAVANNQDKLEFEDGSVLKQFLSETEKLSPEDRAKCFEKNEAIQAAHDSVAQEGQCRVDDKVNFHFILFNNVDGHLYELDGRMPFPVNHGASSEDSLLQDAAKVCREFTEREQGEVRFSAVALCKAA
Briefly: Inhibition Activity Assay. The following applies: pH 7.6; 25 °C. The source says: (§1) Inhibition activity and selectivity for UCH-L1 and UCH-L3.

Experiment [2] deals with T2, Ubiquitin carboxyl-terminal hydrolase isozyme L3 (Mus musculus, UniProt Q9JKB1).
T2 sequence (Q9JKB1 whole entry): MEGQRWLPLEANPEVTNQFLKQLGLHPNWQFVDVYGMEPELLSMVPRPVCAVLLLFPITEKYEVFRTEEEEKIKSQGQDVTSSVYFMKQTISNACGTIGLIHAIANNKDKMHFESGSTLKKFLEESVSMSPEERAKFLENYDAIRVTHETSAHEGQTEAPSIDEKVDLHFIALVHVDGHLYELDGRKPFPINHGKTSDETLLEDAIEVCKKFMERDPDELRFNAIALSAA
As to the kind of experiment: Inhibition Activity Assay. The following applies: pH 7.6; 25 °C.
From the text: as §1

What is called IC50 is the concentration that inhibits the measured activity by half. A low value points to inhibition by little substance. Take `O=C(NC12CC3CC(CC(C3)C1)C2)c1ccc([N+](=O)[O-])o1` [N-(1-adamantyl)-5-nitrofuran-2-carboxamide]: in experiment [1], half-maximal inhibition (IC50) required 6.5 µM.

The molecule `CCCCn1c(=O)c(C(=O)NCc2ccccc2)c(O)c2ccccc21` gave a concentration for half-maximal inhibition (IC50) in experiment [1] of 6.1 µM.

`CCOC(=O)C1=C(C)N=c2sc(=Cc3ccc(OCC(=O)O)c(OC)c3)c(=O)n2C1c1ccc(Cl)cc1` (centres undefined) [2-[4-[[6-carbethoxy-5-(4-chlorophenyl)-3-keto-7-methyl-5H-thiazolo[3,2-a]pyrimidin-2-ylidene]methyl]-2-methoxy-phenoxy]acetic acid] had a concentration for half-maximal inhibition (IC50) in experiment [1] of 43 µM.

Turning to `Cc1ccc(NC(=O)c2[nH]cnc2C(=O)N[C@@H](CCCCNC(=O)OC(C)(C)C)C(=O)OC(C)(C)C)cc1` [(2S)-6-(tert-butoxycarbonylamino)-2-[[4-(p-tolylcarbamoyl)-1H-imidazole-5-carbonyl]amino]hexanoic acid tert-butyl ester], the IC50 in experiment [1] was determined as 6 µM; in experiment [2], 32 µM.

`CCSc1nsc(NC(=O)Nc2cccc(F)c2)n1` [1-[3-(ethylthio)-1,2,4-thiadiazol-5-yl]-3-(3-fluorophenyl)urea]: in experiment [1], the IC50 stood at 16 µM.

With `COc1ccc(CC2=CC(=O)c3ccccc3C2=O)cc1` [MLS001163415], 114 µM corresponded to half-maximal inhibition in experiment [1] (IC50). Against the preceding molecule, the IC50 is about 7.1-fold higher.

`CC[n+]1c(/C=C/N(C)c2ccccc2)n(-c2ccccc2)c2ccc(-c3nc4ccccc4s3)cc21` [MLS001207496] gave an IC50 in experiment [1] of 50 µM. This IC50 is about 2.3-fold lower than that of the molecule before.

On to `CCCCn1c(=O)c(C(=O)NCc2ccccc2Cl)c(O)c2ccccc21` [MLS001202596], for which the IC50 was found to be 17 µM in experiment [1] and 41 µM in experiment [2].

As for `CC(C)=CCc1cc([C@@H]2COc3c(ccc4c3C=CC(C)(C)O4)C2)c(O)cc1O` [5'-prenyl-glabridin], the IC50 in experiment [1] stood at 6.1 µM.

In the case of `Cc1ccccc1C(=O)Nc1scc(-c2ccc(Br)cc2)c1C(=O)O`, the figures for the IC50 in experiment [1] and in experiment [2] were 6 µM and 32 µM, respectively.

Consider `Cc1ccc(-c2cc(-c3ccccc3)nc(N(C)N)n2)cc1` [1-methyl-1-[4-(4-methylphenyl)-6-phenylpyrimidin-2-yl]hydrazine], for which the half-maximal inhibitory concentration (IC50) in experiment [1] amounted to 4.1 µM; in experiment [2] it was 113 µM.

With `Cc1cc(Cl)c2oc(C(=O)N3CCC(O)(c4ccccc4)CC3)c(C)c2c1` [1-[(7-chloro-3,5-dimethyl-1-benzofuran-2-yl)carbonyl]-4-phenylpiperidin-4-ol], the 50% inhibitory concentration (IC50) turned out to be 1.2 µM in experiment [1] and 25 µM in experiment [2].

For `Cc1c(Cl)cccc1-c1ccc(CNCc2ccccn2)o1` [[5-(3-Chloro-2-methyl-phenyl)-furan-2-ylmethyl]-pyridin-2-ylmethyl-amine], the IC50 in experiment [1] is more than 100 µM.

For `CC(C)(C)OC(=O)[C@H](Cc1ccccc1)NC(=O)c1[nH]cnc1C(=O)Nc1cccc(Cl)c1`, the half-inhibitory concentration (IC50) in experiment [1] amounted to 17 µM.

With `COc1cccc(C(=O)Oc2ccc(CN=Nc3ccc(C(=O)O)cc3)cc2OC)c1` [SMR000502791], the IC50 in experiment [1] amounted to 21 µM.

`CCCc1cc(=O)n2[nH]c(C)c(-c3ccc(Cl)cc3)c2n1` [SMR000518792]: in experiment [1], the IC50 is 12 µM.

As for `Cc1nc(N=NCc2ccc3c(c2)OCO3)sc1C` [(4,5-dimethylthiazol-2-yl)-(piperonylideneamino)amine], the half-inhibitory concentration (IC50) in experiment [1] worked out at 5.8 µM.

`COc1cc(C)c(C(=O)CC(=O)c2c(C)cc(OC)cc2C)c(C)c1` [SMR000475659] returned a half-maximal inhibitory concentration (IC50) in experiment [1] of 45 µM. Against the preceding molecule, the IC50 is about 7.8-fold higher.

Regarding `CCCCn1c(=O)c(C(=O)NCCc2ccccc2)c(O)c2ccccc21` [1-butyl-2-oxidanyl-4-oxidanylidene-N-(2-phenylethyl)quinoline-3-carboxamide], the 50% inhibitory concentration (IC50) in experiment [1] was 12 µM.

Molecule `COc1cccc(NC(=O)Nc2nc(SC(C)(C)C)ns2)c1` [1-(3-tert-butylsulfanyl-1,2,4-thiadiazol-5-yl)-3-(3-methoxyphenyl)urea] returned a half-maximal inhibitory concentration (IC50) in experiment [1] of 16 µM.

As to `CC(=NNC(=O)c1ccc(C)cc1)c1c(C)[nH]n(-c2ccccc2)c1=O` [4-Methyl-benzoic acid N'-[1-(3-methyl-5-oxo-1-phenyl-1,5-dihydro-pyrazol-4-ylidene)-ethyl]-hydrazide], the midpoint of inhibition in experiment [1], the IC50, lay at 95 µM.

For the molecule `NC(=S)NN=Cc1ccc(C23CC4CC(CC(C4)C2)C3)cc1` [1-[[4-(1-adamantyl)phenyl]methylideneamino]thiourea], it took 52 µM to reach half-maximal inhibition in experiment [1] (IC50).

Consider `Clc1cccc(Cl)c1C1Nc2cccc3cccc(c23)N1` [SMR000515760], for which, in experiment [1], half-maximal inhibition (IC50) was put at 4.1 µM.

In experiment [1], `CC(C)=CCOc1ccc([C@@H]2COc3c(ccc4c3C=CC(C)(C)O4)C2)c(O)c1` [MLS000697599] showed an IC50 of 8.8 µM.

In experiment [1], `Cc1ccc(OCCn2c(S)nc3ccccc32)c(C(C)C)c1` [SMR000515074] displayed an IC50 of 19 µM. Compared with the last molecule, the IC50 is about 2.2-fold higher.

With `CN1CCN(C2Cc3ccc(Cl)cc3Sc3ccc(F)cc32)CC1` (centres undefined), the IC50 in experiment [1] is 321 µM.

In experiment [1], `CC(C)c1ccc(C=Nn2c(-c3ccccc3)n[nH]c2=S)cc1` [4-[(4-Isopropyl-benzylidene)-amino]-5-phenyl-4H-[1,2,4]triazole-3-thiol] yielded an IC50 of 13 µM. Compared with the last molecule, the IC50 is about 25-fold lower.

Molecule `COc1cc(OC)c([C@H]2C=C(C)[C@H]3C[C@@H]2C3(C)C)c(OC)c1` [SMR000475707] showed an IC50 in experiment [1] of 80 µM.

In experiment [1], `COc1ccc(Nc2nc(NN)nc(Nc3ccc(OC)cc3)n2)cc1` [MLS001185433] returned an IC50 of more than 100 µM.

In experiment [1], `O[C@@H]1CCCN2CCc3c([nH]c4ccccc34)[C@H]12` [MLS000728593] showed a concentration for half-maximal inhibition (IC50) of 3.4 µM.

In experiment [1], `COc1cccc(CN=Nc2cc(N3CCOCC3)ncn2)c1O` [(6E)-2-methoxy-6-[[N'-(6-morpholinopyrimidin-4-yl)hydrazino]methylene]cyclohexa-2,4-dien-1-one] gave an IC50 of 6.1 µM.

Molecule `C=CC(C)(C)c1c(O)c(CC=C(C)C)c(O)c2c(=O)c3ccc(O)c(O)c3oc12` [SMR000470960] yielded a concentration for half-maximal inhibition (IC50) in experiment [1] of 1.8 µM.

In experiment [1], `O=C1C=C(N2CCCCC2)c2ccccc2C1=O` [4-piperidin-1-ylnaphthalene-1,2-dione] yielded a half-maximal inhibitory concentration (IC50) of 78 µM.

For the molecule `CCOc1ccc(CN=Nc2cc(N3CCOCC3)nc(C)n2)c(O)c1` [(6E)-3-ethoxy-6-[[2-(2-methyl-6-morpholin-4-yl-pyrimidin-4-yl)hydrazinyl]methylidene]cyclohexa-2,4-dien-1-one], in experiment [1], the midpoint of inhibition, the IC50, lay at 19 µM.

Molecule `CC1Oc2cc3oc4c(O)c5c(cc4c(=O)c3c(O)c2C1(C)C)C=CC(C)(C)O5` (centres undefined) [gerontoxanthone A] returned an IC50 in experiment [1] of 4.1 µM.

The molecule `O=[N+]([O-])c1c(Nc2cccc(O)c2)cc(Cl)c2nonc12` [3-[(7-chloro-4-nitro-benzofurazan-5-yl)amino]phenol] registered a half-inhibitory concentration (IC50) in experiment [1] of more than 100 µM.

The molecule `CC(C)=CCc1c2c(c(O)c3c(=O)c4c(oc13)-c1cc(O)c(O)cc1OC4C=C(C)C)C=CC(C)(C)O2` (centres undefined) [SMR000470928] registered a half-inhibitory concentration (IC50) in experiment [1] of 12 µM.

The molecule `Cc1ccc(OCCCCc2c(C)n[nH]c2C)cc1` [MLS001001654] displayed a concentration for half-maximal inhibition (IC50) in experiment [1] of 1.3 µM.

Regarding `Cc1cccc(OCC(=O)Nc2ccncc2)c1` [2-(3-methylphenoxy)-N-pyridin-4-yl-ethanamide], 36 µM corresponded to half-maximal inhibition in experiment [1] (IC50). Compared with the last molecule, the IC50 is about 28-fold higher.

`COc1cc(/C=C2/SC(=S)N(Cc3ccccc3)C2=O)ccc1O` [MLS001211321]: the midpoint of inhibition in experiment [1], the IC50, lay at 18 µM. This IC50 is about 2-fold lower than that of the molecule before.

Take `O=C(Nc1scc(-c2ccc(Br)cc2)c1C(=O)O)c1ccccc1F` [4-(4-bromophenyl)-2-[[(2-fluorophenyl)-oxomethyl]amino]-3-thiophenecarboxylic acid]: in experiment [1], the IC50 came out at 12 µM.

Turning to `Cc1cccc(C(=O)Nc2scc(-c3ccc(Br)cc3)c2C(=O)O)c1` [4-(4-bromophenyl)-2-[(3-methylphenyl)carbonylamino]thiophene-3-carboxylic acid], the IC50 in experiment [1] came out at 6.2 µM.

On to `CC(C)(C)c1ccc(O)c(N=Cc2c(O)ccc3ccccc23)c1` [MLS001211069], for which inhibition in experiment [1] was half-maximal at 15 µM (IC50).

Molecule `COc1ccc(-c2csc(NC(=O)c3ccc(C(C)(C)C)cc3)c2C(=O)O)cc1` [SMR000475974] had an IC50 in experiment [1] of 22 µM.

`CC1(C)CC(=O)C(C2C3=C(CC(C)(C)CC3=O)Oc3c(Br)cc(Br)cc32)C(=O)C1` (centres undefined) [5,7-bis(bromanyl)-9-(4,4-dimethyl-2-oxidanyl-6-oxidanylidene-cyclohexen-1-yl)-3,3-dimethyl-4,9-dihydro-2H-xanthen-1-one]: in experiment [1], 12 µM corresponded to half-maximal inhibition (IC50). Compared with the last molecule, the IC50 is about 1.8-fold lower.

`COc1ccc(N=Nc2cc(-c3ccccc3)ccc2O)cc1`: the IC50 in experiment [1] amounted to 12 µM.

Regarding `CC1Oc2cc3oc4c(O)c(O)ccc4c(=O)c3c(O)c2C1(C)C` (centres undefined) [toxyloxanthone C], in experiment [1], it took 3.4 µM to reach half-maximal inhibition (IC50).

In the case of `Oc1c(Br)cc(Br)cc1CNc1cccc2cccnc12` [SMR000503121], the midpoint of inhibition in experiment [1], the IC50, lay at 14 µM.

With `O=C1C=CC([N+](=O)[O-])=CC1/C=N/NC(=O)C(O)(c1ccccc1)c1ccccc1` (centres undefined), half-maximal inhibition in experiment [1] (IC50) was put at 9.5 µM.

As to `CC(C)NC(=S)NC(c1ccccc1)(c1ccccc1)c1ccccc1` [MLS001008525], the IC50 in experiment [1] stood at 2.7 µM.

For `Brc1cc(-c2ccccc2)nc(-c2ccccc2)n1` [4-bromo-2,6-diphenyl-pyrimidine], in experiment [1], half-maximal inhibition (IC50) was put at 13 µM.

For `Cc1ccc(C(=O)NC(=S)NNC(=O)c2cccc([N+](=O)[O-])c2)cc1`, the midpoint of inhibition in experiment [1], the IC50, lay at 36 µM.

In experiment [1], `O=C1C([N+](=O)[O-])=CC(Cl)=CC1/C=N/NC(=O)C(O)(c1ccccc1)c1ccccc1` (centres undefined) [N''''-[(E)-(3-chloro-5-nitro-6-oxocyclohexa-2,4-dien-1-ylidene)methyl]-2-hydroxy-2,2-diphenylacetohydrazide] gave an IC50 of 16 µM.

The molecule `Cc1ccc(Cn2c(C(CO)Nc3nc(-c4ccc(F)cc4)cs3)nc3ccccc32)cc1` (centres undefined) [2-[4-(4-Fluoro-phenyl)-thiazol-2-ylamino]-2-[1-(4-methyl-benzyl)-1H-benzoimidazol-2-yl]-ethanol] showed a 50% inhibitory concentration (IC50) in experiment [1] of 8.8 µM.
